Measured values taken from US7173019B2, “Linked cyclitols and their polysulfated derivatives” (The Australian National University, priority 2001, dated 2007).
≈ marks a conversion by molar mass, not a printed value. Like-named read-outs stand apart in the source and are kept apart here.

Assays:
[1] = target: T1, human leukocyte Cathepsin G (Homo sapiens, UniProt P08311); assay: Cathepsin G inhibition, fluorogenic substrate, 96 well assay; assay type: biochemical; conditions: human leukocyte cathepsin G 100 ng, 37° C., 60 min, pH 6.6
T1 construct: human leukocyte Cathepsin G (100 ng protein); from tissue; host or cells: human leukocytes
T1 sequence (P08311 21-244): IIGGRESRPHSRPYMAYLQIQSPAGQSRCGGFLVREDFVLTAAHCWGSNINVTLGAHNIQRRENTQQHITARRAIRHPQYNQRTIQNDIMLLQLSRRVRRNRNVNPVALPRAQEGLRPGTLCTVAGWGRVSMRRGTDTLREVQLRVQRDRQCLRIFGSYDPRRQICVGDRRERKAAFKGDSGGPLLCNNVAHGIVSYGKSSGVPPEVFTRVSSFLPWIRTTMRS
Experimental: Cathepsin G activity was determined using a 96 well assay format in PVC microtitre U-bottom plates with activity determination by a fluorescence plate reader. Briefly, within a total incubation volume of 40 μl, human leukocyte Cathepsin G (100 ng protein) was added to a mixture of inhibitor and the fluorogenic substrate MeOSuc-ala-ala-pro-phe-AMAC in 50 mM-NaOAc buffer, pH 6.6 containing 50 mM NaCl and 0.1% (v/v) Brij 35. The mixture was incubated at 37° C. for 60 min, the reaction stopped by the addition of 40 μl of 250 mM acetic acid and the fluorescence determined with excitation at 360 nm and emitted light measured at 460 nm.
In this table, the linked cyclitol compound identifications are the same as those given in Section A above where the structures of the compounds are also given. With regard to the purity rating, a greater number of asterisks signifies a greater degree of purity with five asterisks signifying an essentially pure compound. The cathepsin G inhibition data are the concentrations of compounds required to inhibit the enzyme by 50%.

[2] = target: T2, human platelet heparanase (Homo sapiens, UniProt Q9Y251); assay: Heparanase inhibition, 3H-radiolabelled HS cleavage assay; assay type: biochemical; conditions: for Relative inhibition (%): based on a comparison with heparin with 100% inhibition at 30 μg/ml; for EC50: heparanase inhibition
T2 construct: 10 ng of purified human platelet heparanase; from tissue; host or cells: human platelets
T2 sequence (Q9Y251 158-543 limits assumed): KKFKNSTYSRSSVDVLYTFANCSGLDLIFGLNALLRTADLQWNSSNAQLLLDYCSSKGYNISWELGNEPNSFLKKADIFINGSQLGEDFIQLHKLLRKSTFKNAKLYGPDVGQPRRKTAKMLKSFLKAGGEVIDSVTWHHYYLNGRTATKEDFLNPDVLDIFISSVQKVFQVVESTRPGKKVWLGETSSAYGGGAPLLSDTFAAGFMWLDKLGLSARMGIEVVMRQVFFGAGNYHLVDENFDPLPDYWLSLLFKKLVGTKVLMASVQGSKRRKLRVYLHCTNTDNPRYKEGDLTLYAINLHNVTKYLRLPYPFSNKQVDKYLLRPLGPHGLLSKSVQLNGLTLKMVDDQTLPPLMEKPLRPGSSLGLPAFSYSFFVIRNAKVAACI
T2 sequence (Q9Y251 36-109 limits assumed): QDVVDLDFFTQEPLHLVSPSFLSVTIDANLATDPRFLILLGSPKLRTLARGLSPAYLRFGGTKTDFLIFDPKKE
Experimental: Briefly, to an incubation mixture of […] containing ^3H-radiolabelled porcine mucosal HS […], 50 mM-sodium acetate buffer, pH 5.0, […] bovine serum albumin and the inhibitor to be tested, was added 10 ng of purified human platelet heparanase and the mixture incubated for 30 min. The reaction was terminated by freezing the assay tubes. The substrate was separated from the cleavage products on minicolumns of sepharose-bound histidine-rich glycoprotein (Freeman, C., and Parish, C. R. [1997], supra).
Inhibitory activity is based on a comparison with heparin with 100% inhibition at 30 μg/ml. The compounds were also tested at the same purity as in Example 15.

[3] = target: bFGF (Homo sapiens, UniProt P09038); assay: Biacore biosensor: inhibition of bFGF binding to immobilised heparin and heparan sulfate; conditions: for Inhibition of binding of bFGF (HS) / Inhibition of binding of bFGF (Hep): inhibitor 0.034 μM, bFGF 0.034 μM
Experimental: (§1) Assays were performed using a Biacore™ 2000 optical biosensor obtained from Biacore AB, Uppsala, Sweden. The biosensor was operated in accordance with the manufacturer's instructions. Briefly, neutravidin was covalently coupled to the surface of CM5 chips of the biosensor and then either biotinylated heparin (1 μg/ml) or biotinylated heparan sulfate ([…]) bound to the immobilised neutravidin. Mixtures of a test compound and a growth factor or other effector compound were preincubated for 2 to 5 minutes and the mixtures then added to individual biosensor cuvettes. Binding of growth factor or effector compound to the heparin or heparan sulfate was then monitored for approximately 5 minutes with the biosensor.
(§2) The tabulated values are the IC50 in μM or % inhibition of binding of the growth factor to the immobilised heparan sulfate (HS) or heparin.

[4] = target: aFGF (Homo sapiens, UniProt P05230); assay: Biacore biosensor: inhibition of aFGF binding to immobilised heparin and heparan sulfate; conditions: inhibitor 0.034 μM, aFGF 0.025 μM; for Inhibition of binding of aFGF (HS): immobilised heparan sulfate; for Inhibition of binding of aFGF (Hep): immobilised heparin
Experimental: as §1, §2

[5] = target: T3, VEGF (Homo sapiens, UniProt P15692); assay: Biacore biosensor: inhibition of VEGF binding to immobilised heparin and heparan sulfate; conditions: inhibitor 0.034 μM, VEGF 0.025 μM; for Inhibition of binding of VEGF (HS): immobilised heparan sulfate; for Inhibition of binding of VEGF (Hep): immobilised heparin
T3 sequence (P15692 27-191 isoform P15692-4): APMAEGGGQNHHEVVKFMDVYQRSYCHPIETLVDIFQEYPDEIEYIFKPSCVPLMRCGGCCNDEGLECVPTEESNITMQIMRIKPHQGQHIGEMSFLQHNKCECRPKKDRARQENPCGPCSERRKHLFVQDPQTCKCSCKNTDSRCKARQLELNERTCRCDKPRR
Experimental: as §1, §2

[6] = target: T4, IL-8 (Homo sapiens, UniProt P10145); assay: Biacore biosensor: inhibition of IL-8 binding to immobilised heparin and heparan sulfate; conditions: inhibitor 1.0 μM, IL-8 0.068 μM; for Inhibition of binding of IL-8 (HS): immobilised heparan sulfate; for Inhibition of binding of IL-8 (Hep): immobilised heparin
T4 sequence (P10145 21-99): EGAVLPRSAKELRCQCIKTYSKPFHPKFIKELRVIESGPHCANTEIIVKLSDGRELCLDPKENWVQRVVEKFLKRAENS
Experimental: as §1

[7] = test system: rat aorta fragments; assay: In vitro angiogenesis inhibition assay; assay type: cell-based; conditions: control 90
Experimental: The ability of linked cyclitol compounds to inhibit angiogenesis in vitro was conducted using the assay essentially as described in the present applicant's International Patent Application No. PCT/AU95/00105 (Publication No. WO 95/23968), the entire content of which is incorporated herein by cross reference. The only changes to the procedure described in PCT/AU95/00105 were that the assays were conducted using rat aorta fragments rather than human placental vessel fragments.
All potential inhibitors were tested at 100 μg/ml with PI-88 also being tested at 10 μg/ml. The tabulated data represent means of 4 culture wells for each experiment. Significant inhibition of angiogenesis is indicated with a single asterisk while double asterisks denote highly significant inhibition.
The compounds were also tested at the same purity as in Example 15 save that the second entries for 4b and 4j relate to data obtained with higher purity compounds than the compounds used for the first data entries of each.

[8] = inhibitor 100 μg/ml, means of 4 culture wells per experiment, * significant, ** highly significant inhibition
[9] = immobilised heparan sulfate, read-out: IC50, inhibition of bFGF binding (HS)
[10] = immobilised heparin, read-out: IC50, inhibition of bFGF binding (Hep)

bFGF, sequence (P09038 134-288 limits assumed, species assumed): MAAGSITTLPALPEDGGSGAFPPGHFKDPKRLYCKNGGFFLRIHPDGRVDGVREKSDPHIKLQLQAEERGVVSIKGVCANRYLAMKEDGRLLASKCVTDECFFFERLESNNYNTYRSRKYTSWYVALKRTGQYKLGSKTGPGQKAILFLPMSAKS
aFGF, sequence (P05230 whole entry, species assumed): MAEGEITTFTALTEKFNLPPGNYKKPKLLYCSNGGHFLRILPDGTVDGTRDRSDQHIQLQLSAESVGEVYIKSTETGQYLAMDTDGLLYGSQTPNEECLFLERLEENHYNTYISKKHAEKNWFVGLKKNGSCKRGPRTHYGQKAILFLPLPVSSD

| Compound | Amount for 50% inhibition [1] [µg/mL] | Relative inhibition (%) [2] [%] | EC50 [2] [µg/mL] | Inhibition of binding of bFGF (HS) ([3]; immobilised heparan sulfate) | Inhibition of binding of bFGF (Hep) ([3]; immobilised heparin) | Inhibition of binding of aFGF (HS) [4] | Inhibition of binding of aFGF (Hep) [4] | Inhibition of binding of VEGF (HS) [5] | Inhibition of binding of VEGF (Hep) [5] | Inhibition of binding of IL-8 (HS) [6] | Inhibition of binding of IL-8 (Hep) [6] | % Growth [7, 8] | % Growth ([7]; inhibitor 100 μg/ml, second entry, higher purity compound, * significant inhibition) | Inhibition (%) at 10 μg/ml ([2]; 10 μg/ml) [%] | IC50 [3, 9] [nM] | IC50 [3, 10] [nM] | % Growth ([7]; inhibitor 10 μg/ml, * significant inhibition) |
| --- | --- | --- | --- | --- | --- | --- | --- | --- | --- | --- | --- | --- | --- | --- | --- | --- | --- |
| O=S(=O)(O)OC1C=CC(N(CCCCCCN(C2C=CC(OS(=O)(=O)O)C(OS(=O)(=O)O)C2OS(=O)(=O)O)C2C=CC(OS(=O)(=O)O)C(OS(=O)(=O)O)C2OS(=O)(=O)O)C2C=CC(OS(=O)(=O)O)C(OS(=O)(=O)O)C2OS(=O)(=O)O)C(OS(=O)(=O)O)C1OS(=O)(=O)O (stereo not shown) [Compound 4b] | 0.22 | 45 | 40 (≈ 25.2 µM) | 48% (HS) | 52% (Hep) | 47% (HS) | 44% (Hep) | 32% (HS) | 45% (Hep) | 48% (HS) | 55% (Hep) | 70% | 65* % | – | – | – | – |
| phosphomannopentaose sulfate [PI-88, reference compound] | – | 100 | 2.9 | 56% (HS) | 50% (Hep) | 33% (HS) | 96% (Hep) | 65% (HS) | 29% (Hep) | 0% | 10% | 45** % | – | 90 | 25 | 34 | 64* % |
| O=S(=O)(O)OC1C(OS(=O)(=O)O)C(OS(=O)(=O)O)C(N(Cc2ccc(CN(C3C(OS(=O)(=O)O)C(OS(=O)(=O)O)C(OS(=O)(=O)O)C(OS(=O)(=O)O)C3OS(=O)(=O)O)C3C(OS(=O)(=O)O)C(OS(=O)(=O)O)C(OS(=O)(=O)O)C(OS(=O)(=O)O)C3OS(=O)(=O)O)cc2)C2C(OS(=O)(=O)O)C(OS(=O)(=O)O)C(OS(=O)(=O)O)C(OS(=O)(=O)O)C2OS(=O)(=O)O)C(OS(=O)(=O)O)C1OS(=O)(=O)O (stereo not shown) [Compound 5e] | – | – | – | – | – | – | – | – | – | – | – | 60* % | – | – | – | – | – |
| O=S(=O)(O)OC1C=CC(N(Cc2ccc(CN(C3C=CC(OS(=O)(=O)O)C(OS(=O)(=O)O)C3OS(=O)(=O)O)C3C=CC(OS(=O)(=O)O)C(OS(=O)(=O)O)C3OS(=O)(=O)O)cc2)C2C=CC(OS(=O)(=O)O)C(OS(=O)(=O)O)C2OS(=O)(=O)O)C(OS(=O)(=O)O)C1OS(=O)(=O)O (stereo not shown) [Compound 4e] | 0.30 | 70 | 9 (≈ 5.59 µM) | 61% (HS) | 49% (Hep) | 63% (HS) | 66% (Hep) | 51% (HS) | 63% (Hep) | 65% (HS) | 62% (Hep) | 55* % | – | – | – | – | – |
| O=S(=O)(O)OC1C=CC(N(Cc2cccc(CN(C3C=CC(OS(=O)(=O)O)C(OS(=O)(=O)O)C3OS(=O)(=O)O)C3C=CC(OS(=O)(=O)O)C(OS(=O)(=O)O)C3OS(=O)(=O)O)c2)C2C=CC(OS(=O)(=O)O)C(OS(=O)(=O)O)C2OS(=O)(=O)O)C(OS(=O)(=O)O)C1OS(=O)(=O)O (stereo not shown) [Compound 4d] | 0.43 | 75 | 15 (≈ 9.32 µM) | 68% (HS) | 52% (Hep) | 65% (HS) | 65% (Hep) | 40% (HS) | 44% (Hep) | 50% (HS) | 57% (Hep) | 67% | – | – | 23 | 32 | – |
| O=S(=O)(O)OC(CN([C@H]1[C@H](OS(=O)(=O)O)[C@H](OS(=O)(=O)O)[C@@H](OS(=O)(=O)O)[C@@H](OS(=O)(=O)O)[C@@H]1OS(=O)(=O)O)[C@H]1[C@H](OS(=O)(=O)O)[C@H](OS(=O)(=O)O)[C@@H](OS(=O)(=O)O)[C@@H](OS(=O)(=O)O)[C@@H]1OS(=O)(=O)O)CN([C@H]1[C@H](OS(=O)(=O)O)[C@H](OS(=O)(=O)O)[C@@H](OS(=O)(=O)O)[C@@H](OS(=O)(=O)O)[C@@H]1OS(=O)(=O)O)[C@H]1[C@H](OS(=O)(=O)O)[C@H](OS(=O)(=O)O)[C@@H](OS(=O)(=O)O)[C@@H](OS(=O)(=O)O)[C@@H]1OS(=O)(=O)O [Compound 5l] | 0.53 | 85 | 12 (≈ 4.96 µM) | 43% (HS) | 33% (Hep) | 54% (HS) | 67% (Hep) | 11% (HS) | 13% (Hep) | 42% (HS) | 52% (Hep) | 80% | – | – | – | – | – |
